How the values were obtained:
[1] = target: T1, Inhibitor of nuclear factor kappa-B kinase subunit beta (Homo sapiens) (UniProt O14920)
T1 sequence (whole entry): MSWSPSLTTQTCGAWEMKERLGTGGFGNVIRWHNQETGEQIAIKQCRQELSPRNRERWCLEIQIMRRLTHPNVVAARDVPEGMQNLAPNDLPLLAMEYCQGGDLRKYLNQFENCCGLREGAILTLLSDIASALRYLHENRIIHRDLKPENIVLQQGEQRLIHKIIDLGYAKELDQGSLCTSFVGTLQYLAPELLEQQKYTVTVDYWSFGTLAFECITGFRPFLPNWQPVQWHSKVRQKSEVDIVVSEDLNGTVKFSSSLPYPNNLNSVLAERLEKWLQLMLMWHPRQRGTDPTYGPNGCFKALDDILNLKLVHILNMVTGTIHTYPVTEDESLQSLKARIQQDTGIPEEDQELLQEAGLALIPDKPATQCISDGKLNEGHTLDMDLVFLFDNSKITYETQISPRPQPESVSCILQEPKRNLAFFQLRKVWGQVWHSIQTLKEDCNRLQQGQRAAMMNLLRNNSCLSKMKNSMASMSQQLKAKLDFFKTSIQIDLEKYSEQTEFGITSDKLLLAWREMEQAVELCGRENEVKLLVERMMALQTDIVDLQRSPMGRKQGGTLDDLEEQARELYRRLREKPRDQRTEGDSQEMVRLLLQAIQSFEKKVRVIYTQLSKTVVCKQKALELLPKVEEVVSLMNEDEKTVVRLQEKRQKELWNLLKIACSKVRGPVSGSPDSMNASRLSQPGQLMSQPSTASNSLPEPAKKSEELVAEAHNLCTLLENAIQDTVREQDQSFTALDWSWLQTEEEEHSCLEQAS

[2] = target: Non-receptor tyrosine-protein kinase TYK2 (Homo sapiens, UniProt P29597); experiment: Selectivity interaction (KinomeScan (DiscoverX)) EUB0001619a TYK2; conditions: at 1 µM
[3] = target: Wee1-like protein kinase 2 (Homo sapiens) (UniProt P0C1S8); experiment: Selectivity interaction (KinomeScan (DiscoverX)) EUB0001619a WEE2; conditions: at 1 µM
[4] = target: Mitotic checkpoint serine/threonine-protein kinase BUB1 (Homo sapiens, UniProt O43683); experiment: Selectivity interaction (KinomeScan (DiscoverX)) EUB0001619a BUB1; conditions: at 1 µM
[5] = target: T2, Mitogen-activated protein kinase 12 (Homo sapiens) (UniProt P53778); experiment: Selectivity interaction (Upstate Kinase Profiler service (Millipore)) EUB0000056c MAPK12; conditions: at 1 µM
T2 sequence (whole entry): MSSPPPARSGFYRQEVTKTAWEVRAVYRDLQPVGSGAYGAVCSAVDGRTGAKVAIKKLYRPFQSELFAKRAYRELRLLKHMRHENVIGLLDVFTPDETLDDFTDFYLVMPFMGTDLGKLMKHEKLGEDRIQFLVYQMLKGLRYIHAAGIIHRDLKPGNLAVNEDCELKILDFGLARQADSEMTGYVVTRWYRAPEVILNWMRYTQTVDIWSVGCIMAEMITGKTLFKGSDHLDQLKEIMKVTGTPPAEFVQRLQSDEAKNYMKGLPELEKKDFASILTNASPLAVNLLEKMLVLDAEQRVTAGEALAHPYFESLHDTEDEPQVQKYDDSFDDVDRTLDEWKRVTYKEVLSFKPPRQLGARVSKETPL

[6] = target: T3, Serine/threonine-protein kinase BRSK1 (Homo sapiens) (UniProt Q8TDC3); experiment: Selectivity interaction (Kinase panel (Z-LYTE Assay)) EUB0001632a BRSK1; conditions: at 10 µM
T3 sequence (whole entry): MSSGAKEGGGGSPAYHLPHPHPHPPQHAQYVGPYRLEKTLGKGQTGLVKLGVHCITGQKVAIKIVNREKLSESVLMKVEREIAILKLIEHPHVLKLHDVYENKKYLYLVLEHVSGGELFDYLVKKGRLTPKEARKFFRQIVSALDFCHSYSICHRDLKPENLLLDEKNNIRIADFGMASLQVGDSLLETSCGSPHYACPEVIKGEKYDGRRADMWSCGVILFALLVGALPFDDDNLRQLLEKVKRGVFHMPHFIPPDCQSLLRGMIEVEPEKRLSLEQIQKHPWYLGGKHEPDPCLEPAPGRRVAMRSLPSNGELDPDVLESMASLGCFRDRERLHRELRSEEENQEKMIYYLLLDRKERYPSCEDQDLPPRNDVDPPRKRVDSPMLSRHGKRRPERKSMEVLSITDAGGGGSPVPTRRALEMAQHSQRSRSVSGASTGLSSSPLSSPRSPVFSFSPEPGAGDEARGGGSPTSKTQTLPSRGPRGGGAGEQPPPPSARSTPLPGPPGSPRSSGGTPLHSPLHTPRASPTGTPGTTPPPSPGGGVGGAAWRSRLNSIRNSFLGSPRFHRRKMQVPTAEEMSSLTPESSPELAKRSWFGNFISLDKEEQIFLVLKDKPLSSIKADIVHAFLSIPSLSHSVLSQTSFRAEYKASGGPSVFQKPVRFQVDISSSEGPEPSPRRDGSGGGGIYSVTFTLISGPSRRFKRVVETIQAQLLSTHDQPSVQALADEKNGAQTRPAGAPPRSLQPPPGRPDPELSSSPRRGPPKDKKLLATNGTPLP

[7] = target: Neuronal acetylcholine receptor; alpha4/beta2 (Homo sapiens) (UniProt P17787+P43681); experiment: Selectivity interaction (Panel of non-epigenetic targets (kinases, GPCRs, ion channels, and transporters, Eurofins) ) EUB0000271b CHRNA4; assay type: protein-complex assay; conditions: at 1 µM

Chain of Wee1-like protein kinase 2 (Homo sapiens) (P0C1S8 whole entry, looked up): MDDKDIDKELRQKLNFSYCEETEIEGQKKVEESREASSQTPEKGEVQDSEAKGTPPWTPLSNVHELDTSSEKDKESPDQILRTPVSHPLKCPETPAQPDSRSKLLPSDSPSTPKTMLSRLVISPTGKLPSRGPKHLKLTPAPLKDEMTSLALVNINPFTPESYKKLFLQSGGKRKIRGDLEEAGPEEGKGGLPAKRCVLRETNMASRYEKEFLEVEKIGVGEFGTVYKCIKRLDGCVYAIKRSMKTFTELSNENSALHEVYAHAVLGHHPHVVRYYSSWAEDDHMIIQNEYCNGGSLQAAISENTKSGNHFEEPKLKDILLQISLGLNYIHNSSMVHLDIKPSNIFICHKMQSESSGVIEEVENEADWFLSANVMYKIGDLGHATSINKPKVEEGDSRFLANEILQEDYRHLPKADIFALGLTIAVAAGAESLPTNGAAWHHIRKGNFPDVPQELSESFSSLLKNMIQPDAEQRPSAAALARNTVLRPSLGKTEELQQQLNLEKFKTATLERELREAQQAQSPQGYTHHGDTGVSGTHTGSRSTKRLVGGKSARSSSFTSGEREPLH
Chain of Mitotic checkpoint serine/threonine-protein kinase BUB1 (O43683 whole entry, looked up): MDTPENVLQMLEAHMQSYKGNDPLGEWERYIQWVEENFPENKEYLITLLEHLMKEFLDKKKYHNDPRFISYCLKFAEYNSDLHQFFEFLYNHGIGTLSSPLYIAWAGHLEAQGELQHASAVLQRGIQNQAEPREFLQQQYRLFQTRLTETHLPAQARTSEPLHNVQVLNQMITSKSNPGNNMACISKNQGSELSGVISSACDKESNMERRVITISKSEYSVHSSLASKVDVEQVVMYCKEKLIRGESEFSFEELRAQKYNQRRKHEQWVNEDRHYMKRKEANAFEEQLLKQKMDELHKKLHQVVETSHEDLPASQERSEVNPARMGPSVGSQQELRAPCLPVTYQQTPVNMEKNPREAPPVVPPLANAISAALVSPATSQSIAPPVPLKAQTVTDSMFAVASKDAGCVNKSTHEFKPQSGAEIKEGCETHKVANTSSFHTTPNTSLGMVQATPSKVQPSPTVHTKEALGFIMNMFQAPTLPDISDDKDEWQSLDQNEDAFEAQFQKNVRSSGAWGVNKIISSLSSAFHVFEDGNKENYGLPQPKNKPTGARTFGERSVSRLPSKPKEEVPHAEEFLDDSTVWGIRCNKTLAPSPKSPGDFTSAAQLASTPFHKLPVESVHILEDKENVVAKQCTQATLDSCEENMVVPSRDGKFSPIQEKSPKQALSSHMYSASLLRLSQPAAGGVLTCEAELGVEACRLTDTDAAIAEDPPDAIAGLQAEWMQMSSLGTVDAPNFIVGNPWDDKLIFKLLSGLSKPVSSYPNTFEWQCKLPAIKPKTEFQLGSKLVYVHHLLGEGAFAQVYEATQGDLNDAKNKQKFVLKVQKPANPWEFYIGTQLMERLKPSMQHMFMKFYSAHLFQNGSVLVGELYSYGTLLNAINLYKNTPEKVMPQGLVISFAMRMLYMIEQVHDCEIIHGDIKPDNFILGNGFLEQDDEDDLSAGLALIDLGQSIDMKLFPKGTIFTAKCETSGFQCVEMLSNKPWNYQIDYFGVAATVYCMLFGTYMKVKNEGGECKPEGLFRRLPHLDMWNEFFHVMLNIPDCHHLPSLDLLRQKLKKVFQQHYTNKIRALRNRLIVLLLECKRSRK
Chain of Non-receptor tyrosine-protein kinase TYK2 (P29597 whole entry): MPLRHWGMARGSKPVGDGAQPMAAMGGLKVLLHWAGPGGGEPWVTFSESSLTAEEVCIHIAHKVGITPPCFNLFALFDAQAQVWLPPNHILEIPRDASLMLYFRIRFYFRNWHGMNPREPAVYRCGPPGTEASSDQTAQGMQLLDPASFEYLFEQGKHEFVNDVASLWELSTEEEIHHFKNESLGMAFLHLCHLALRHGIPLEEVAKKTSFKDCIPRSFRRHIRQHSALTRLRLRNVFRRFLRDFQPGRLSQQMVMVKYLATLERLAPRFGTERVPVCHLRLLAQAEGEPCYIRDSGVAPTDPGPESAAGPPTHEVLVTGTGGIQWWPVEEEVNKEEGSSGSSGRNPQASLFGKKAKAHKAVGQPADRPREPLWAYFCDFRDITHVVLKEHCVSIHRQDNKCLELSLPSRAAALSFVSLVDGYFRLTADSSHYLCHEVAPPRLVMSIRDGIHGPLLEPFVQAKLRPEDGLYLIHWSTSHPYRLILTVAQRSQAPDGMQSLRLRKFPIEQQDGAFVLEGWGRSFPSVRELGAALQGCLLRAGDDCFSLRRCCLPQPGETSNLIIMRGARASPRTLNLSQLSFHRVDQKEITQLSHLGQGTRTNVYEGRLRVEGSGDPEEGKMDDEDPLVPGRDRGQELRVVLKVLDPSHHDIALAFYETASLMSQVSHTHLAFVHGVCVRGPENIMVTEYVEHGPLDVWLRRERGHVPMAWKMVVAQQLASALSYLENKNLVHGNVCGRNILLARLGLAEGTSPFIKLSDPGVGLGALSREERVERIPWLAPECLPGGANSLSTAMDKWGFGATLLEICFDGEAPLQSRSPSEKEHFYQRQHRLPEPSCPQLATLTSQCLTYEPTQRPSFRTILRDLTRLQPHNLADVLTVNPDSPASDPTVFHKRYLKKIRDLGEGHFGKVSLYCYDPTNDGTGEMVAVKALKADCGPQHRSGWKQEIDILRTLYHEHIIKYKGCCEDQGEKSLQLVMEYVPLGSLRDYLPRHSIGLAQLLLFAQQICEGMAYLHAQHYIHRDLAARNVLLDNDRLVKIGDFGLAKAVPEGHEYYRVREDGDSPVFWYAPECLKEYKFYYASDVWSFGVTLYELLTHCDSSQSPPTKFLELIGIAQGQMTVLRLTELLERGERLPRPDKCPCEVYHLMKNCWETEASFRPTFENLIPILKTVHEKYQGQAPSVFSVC

**Q.** For `Cc1cnc(Nc2ccc(F)cc2Cl)nc1-c1c[nH]c(C(=O)N[C@H](CO)c2cccc(Cl)c2)c1`, which % of inhibition [1] is on record?
**A.** 8%

**Q.** How did the % of control [2] turn out when `N#Cc1cccc(-c2c[nH]c3ncnc(N4CCOCC4)c23)c1` was run?
**A.** 69%

**Q.** And the % of control [3]?
**A.** 96%

**Q.** And the % of control [4]?
**A.** 86%

**Q.** How did the % of inhibition [5] turn out when `Cc1ccc(-c2ccc3c(ccc4sc5c(c43)NC[C@@H](C)NC5=O)n2)cn1` was run?
**A.** -15%

**Q.** `Cn1cc(-n2cnc3c(NCc4nc5cc(Cl)c(Cl)cc5[nH]4)nc(N4CCOCC4)nc32)cn1` was tested. Which % of control [6] did it give?
**A.** 11.9%

**Q.** For `Cc1cc(C)cc([C@@H]2c3cc(C)ccc3NC(=O)CN2C(=O)c2ccc(Br)s2)c1`, which % of inhibition [7] is on record?
**A.** -18%

Reference: ChEMBL document CHEMBL5465560, “Selectivity Literature for EUbOPEN Chemogenomic Library” (2024)
